Results reported in US11976064B2, “Toll-like receptor agonists” (Pfizer Inc., priority 2019, dated 2024).
pEC50: −log10 of the molar value.

Biological target: T1, human toll like receptor 8 (hTLR8) (Homo sapiens, UniProt Q9NR97)
T1 construct: host or cells: HEK293 (HEK-Blue hTLR8)
T1 sequence (Q9NR97 27-1041): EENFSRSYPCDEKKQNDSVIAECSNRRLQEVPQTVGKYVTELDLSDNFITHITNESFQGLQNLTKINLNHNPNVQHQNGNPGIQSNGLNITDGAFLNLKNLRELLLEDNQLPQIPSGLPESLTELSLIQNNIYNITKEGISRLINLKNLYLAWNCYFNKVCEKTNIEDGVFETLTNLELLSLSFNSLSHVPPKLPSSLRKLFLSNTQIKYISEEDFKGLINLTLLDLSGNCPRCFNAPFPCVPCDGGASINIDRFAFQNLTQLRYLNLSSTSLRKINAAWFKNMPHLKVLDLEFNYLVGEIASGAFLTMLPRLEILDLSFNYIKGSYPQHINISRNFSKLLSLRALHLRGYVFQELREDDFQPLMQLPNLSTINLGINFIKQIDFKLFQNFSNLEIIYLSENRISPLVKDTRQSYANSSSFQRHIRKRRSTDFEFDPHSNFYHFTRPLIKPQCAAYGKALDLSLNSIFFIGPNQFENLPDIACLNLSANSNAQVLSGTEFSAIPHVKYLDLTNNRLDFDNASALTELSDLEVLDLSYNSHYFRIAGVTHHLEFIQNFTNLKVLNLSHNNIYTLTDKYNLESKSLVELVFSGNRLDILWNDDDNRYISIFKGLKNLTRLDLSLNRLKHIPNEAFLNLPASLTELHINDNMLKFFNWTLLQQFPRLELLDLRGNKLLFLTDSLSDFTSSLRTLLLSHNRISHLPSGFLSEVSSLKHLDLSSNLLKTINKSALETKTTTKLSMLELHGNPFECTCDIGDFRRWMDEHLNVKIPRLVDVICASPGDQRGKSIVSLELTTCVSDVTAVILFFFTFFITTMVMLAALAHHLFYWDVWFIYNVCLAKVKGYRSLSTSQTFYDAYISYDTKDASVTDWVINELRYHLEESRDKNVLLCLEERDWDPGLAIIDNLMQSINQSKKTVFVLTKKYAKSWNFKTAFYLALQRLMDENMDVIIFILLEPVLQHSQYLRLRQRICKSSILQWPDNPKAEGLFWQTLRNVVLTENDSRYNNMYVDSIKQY
Test: hTLR8 cell functional assay (HEK-Blue hTLR8 SEAP reporter)
Assay type: cell-based
Conditions: HEK293 cells stably overexpressing hTLR8, SEAP reporter; geometric mean when tested more than once
Method: The Examples described were tested for biological activity in functional cellular assays using HEK293 cells stably overexpressing human TLR7 or TLR8. The assays tested for the ability of each Example to stimulate secretion of interferon alpha (IFNα) in human primary blood mono nuclear cells (PBMC).
To determine the ability of each Example to activate the human toll like receptor 7 (hTLR7) or human toll like receptor 8 (hTLR8), cell-based reporter systems were utilized. HEK293 cells stably overexpressing either hTLR7 or hTLR8 along with a reporter gene containing an optimized secreted embryonic alkaline phosphatase gene (SEAP), under the control of the IFN-b minimal promoter fused to five NF-κB and AP-1-binding sites, were obtained from Invivogen (HEK-Blue™ hTLR7, cat #Hkb-ht1r7; HEK-Blue™ hTLR8, cat #Hkb-ht1r8). Stimulation of hTLR7 or hTLR8 in these cells activates NF-κB and AP-1 and induces the production of SEAP which can be quantified using an alkaline phosphatase detection reagent.
Cells were maintained in Dulbecco's Modified Eagle Media (DMEM) (containing Fetal Bovine Serum (FBS) heat inactivated (10%), Glutamax (2 mM), Penicillin/Streptomycin, Blasticidin (10 μg/ml), Zeocin (100 μg/ml) and Normocin (100 μg/ml)). On day one of the assay, Examples were prepared using 11-point half-log serial dilutions from a 10mM DMSO stock solution and 50 nl was spotted into 384-well Viewplates (PerkinElmer, cat #6007480). Positive control TLR7/8 agonist and negative control (DMSO, no Example) were also spotted within the assay plate and were used to determine percent effect during the analysis process. After resuspension in DMEM assay media containing FBS heat inactivated (10%), Glutamax (2 mM) and Penicillin/Streptomycin, 10,000 cells/20 μl/well were added to previously prepared plates. Plates were incubated overnight (16-20 hrs) at 37° C. in a 5% CO2 environment. Prewetted Microclime lids (Labcyte, LLS-0310) were used to prevent evaporation. On day two of the assay, QUANTI-Blue™ detection reagent was prepared by reconstituting QUANTI-Blue™ powder (InvivoGen, Rep-qb1) with 100 ml of sterile water and allowed to equilibrate to 37° C. for 15 minutes. 20 μl of QUANTI-Blue™ detection reagent was added to each well and plates were incubated at room temperature for 180 min. At the end of the incubation, plates were read on an Envision (Perkin Elmer) plate reader capturing absorbance at 650 nm.
Using Positive (TLR7/8 agonist) and Negative (DMSO) controls, the percent (%) effect was calculated for each Example using the following equation: effect=100−[100*{(Example−Positive Control)/(Negative Control−Positive Control)}]
The % effect at each concentration of each Example was calculated utilizing the ABase software suite (IBDS) and was relative to the amount of SEAP produced in the positive and negative control wells contained within each assay plate. The concentrations and % effect values for each Example were fit using a 4-parameter logistic model in ABase and the concentration of each Example that produced 50% response (EC50) was calculated.

| Structure (SMILES) | pEC50 |
| --- | --- |
| Cc1nc(N)c2nc(CC(F)(F)F)n(CC(C)(CO)CO)c2c1C [Example 8, 2-((4-amino-6,7-dimethyl-2-(2,2,2-trifluoroethyl)-1H-imidazo[4,5-c]pyridin-1-yl)methyl)-2-methylpropane-1,3-diol] | 5.10 |
| CCc1nc2c(N)nc3ccccc3c2n1CC(C)(CO)CO [Example 15, 2-((4-amino-2-ethyl-1H-imidazo[4,5-c]quinolin-1-yl)methyl)-2-methylpropane-1,3-diol] | 6.21 |
| CCCc1nc2c(N)nc3ccccc3c2n1CC(C)(CO)CO [Example 16, 2-((4-amino-2-propyl-1H-imidazo[4,5-c]quinolin-1-yl)methyl)-2-methylpropane-1,3-diol] | 6.49 |
| CCOCc1nc2c(N)nc3ccccc3c2n1CC(C)(CO)CO [Example 3, 2-((4-amino-2-(ethoxymethyl)-1H-imidazo[4,5-c]quinolin-1-yl)methyl)-2-methylpropane-1,3-diol] | 6.71 |
| CCCCc1nc2c(N)nc3c(c2n1CC(C)(CO)CO)CCC3 [Example 14, 2-((4-amino-2-butyl-7,8-dihydrocyclopenta[b]imidazo[4,5-d]pyridin-1(6H)-yl)methyl)-2-methylpropane-1,3-diol] | 6.61 |
| CCOCc1nc2c(N)nc(C)c(C)c2n1CC(C)(CO)CO [Example 2, 2-((4-amino-2-(ethoxymethyl)-6,7-dimethyl-1H-imidazo[4,5-c]pyridin-1-yl)methyl)-2-methylpropane-1,3-diol] | 6.09 |
| CCCCc1nc2c(N)nc3ccccc3c2n1CC(C)(CO)CO [Example 10, 2-((4-amino-2-butyl-1H-imidazo[4,5-c]quinolin-1-yl)methyl)-2-methylpropane-1,3-diol] | 7.04 |
| CCOCc1nc2c(N)nc(C)c(C)c2n1CC(C)(CO)COC (single isomer, unassigned) [Example 7, 3-(4-amino-2-(ethoxymethyl)-6,7-dimethyl-1H-imidazo[4,5-c]pyridin-1-yl)-2-(methoxymethyl)-2-methylpropan-1-ol] | 4.78 |
| CCOCc1nc2c(N)nc(C)c(C)c2n1CC(CO)CO [Example 1, 2-((4-amino-2-(ethoxymethyl)-6,7-dimethyl-1H-imidazo[4,5-c]pyridin-1-yl)methyl)propane-1,3-diol] | 5.59 |
| CCCCc1nc2c(N)nc3c(c2n1CC(C)(CO)CO)CCCC3 [Example 13, 2-((4-amino-2-butyl-6,7,8,9-tetrahydro-1H-imidazo[4,5-c]quinolin-1-yl)methyl)-2-methylpropane-1,3-diol] | 6.98 |
| CCOCc1nc2c(N)nc(C)c(C)c2n1CC(CC)(CO)CO [Example 9, 2-((4-amino-2-(ethoxymethyl)-6,7-dimethyl-1H-imidazo[4,5-c]pyridin-1-yl)methyl)-2-ethylpropane-1,3-diol] | 5.84 |
| CCOCc1nc2c(N)nc(C)c(C)c2n1CC(C)(CO)COC (single isomer, unassigned) [Example 6, 3-(4-amino-2-(ethoxymethyl)-6,7-dimethyl-1H-imidazo[4,5-c]pyridin-1-yl)-2-(methoxymethyl)-2-methylpropan-1-ol] | 5.19 |
